Tests used:
[1] = test system: Pfeiffer (DLBCL cell line); test: caspase 3/7 apoptosis assay; format: cell-based; settings: Homo sapiens, 24-hour treatment (FIG. 1), read-out: EC50, induced apoptosis (caspase 3/7 assay)
[2] = test system: multiple myeloma model derived from H929 cell line; test: mouse model of multiple myeloma (H929); format: in vivo; settings: H929 cell line (FIG. 5)
[3] = test system: hematological malignant cell lines (leukemia, lymphoma, multiple myelomas); test: antiproliferative activity, hematological malignant cell line panel; format: cell-based; settings: cell line panel representing leukemia, multiple myelomas (FIG. 2)
HCC1937 = test: antiproliferative activity, solid tumor cell line; format: cell-based; settings: Homo sapiens; HCC1937, Breast
Protocol: (§1) Example 2. The Anti-Cancer Activity of ASN002 was Also Evaluated in Many Solid Tumor Cell Lines.

A375 = test: antiproliferative activity, solid tumor cell line; format: cell-based; settings: Homo sapiens, A-375; A375, Melanoma
Protocol: as §1

SKHEP1 = test: antiproliferative activity, solid tumor cell line; format: cell-based; settings: Homo sapiens, SK-HEP1; SKHEP1, Endothelial
Protocol: as §1

SKMEL2 = test: antiproliferative activity, solid tumor cell line; format: cell-based; settings: Homo sapiens, SK-MEL-2; SKMEL2, Melanoma
Protocol: as §1

BT474 = test: antiproliferative activity, solid tumor cell line; format: cell-based; settings: Homo sapiens, BT-474; BT474, Breast
Protocol: as §1

T24 = test: antiproliferative activity, solid tumor cell line; format: cell-based; settings: Homo sapiens, T-24; T24, Bladder
Protocol: as §1

MDA-MB-231 = test: antiproliferative activity, solid tumor cell line; format: cell-based; settings: Homo sapiens; MDA-MB-231, Breast
Protocol: as §1

MFM-223 = test: antiproliferative activity, solid tumor cell line; format: cell-based; settings: Homo sapiens; MFM-223, Breast
Protocol: as §1

MCF7 = test: antiproliferative activity, solid tumor cell line; format: cell-based; settings: Homo sapiens; MCF7, Breast
Protocol: as §1

KE39 = test: antiproliferative activity, solid tumor cell line; format: cell-based; settings: KE39, Gastric
Protocol: as §1

MIAPACA2 = test: antiproliferative activity, solid tumor cell line; format: cell-based; settings: Homo sapiens, MIA PaCa-2; MIAPACA2, Pancreas
Protocol: as §1

Colo205 = test: antiproliferative activity, solid tumor cell line; format: cell-based; settings: Homo sapiens, COLO 205; Colo205, Colon
Protocol: as §1

Y79 = test: antiproliferative activity, solid tumor cell line; format: cell-based; settings: Homo sapiens; Y79, Retiblastoma
Protocol: as §1

JEG3 = test: antiproliferative activity, solid tumor cell line; format: cell-based; settings: Homo sapiens, JEG-3; JEG3, Placenta
Protocol: as §1

HT1197 = test: antiproliferative activity, solid tumor cell line; format: cell-based; settings: Homo sapiens; HT1197, Bladder
Protocol: as §1

MDAMB468 = test: antiproliferative activity, solid tumor cell line; format: cell-based; settings: Homo sapiens, MDA-MB-468; MDAMB468, Breast
Protocol: as §1

HT1376 = test: antiproliferative activity, solid tumor cell line; format: cell-based; settings: Homo sapiens, HT-1376; HT1376, Bladder
Protocol: as §1

MFE296 = test: antiproliferative activity, solid tumor cell line; format: cell-based; settings: Homo sapiens, MFE-296; MFE296, Endometrial
Protocol: as §1

A549 = test: antiproliferative activity, solid tumor cell line; format: cell-based; settings: Homo sapiens; A549, Lung
Protocol: as §1

SKMEL28 = test: antiproliferative activity, solid tumor cell line; format: cell-based; settings: Homo sapiens, SK-MEL-28; SKMEL28, Melanoma
Protocol: as §1

MKN1 = test: antiproliferative activity, solid tumor cell line; format: cell-based; settings: Homo sapiens, MKN-1; MKN1, Gastric
Protocol: as §1

SW480 = test: antiproliferative activity, solid tumor cell line; format: cell-based; settings: Homo sapiens; SW480, Colon
Protocol: as §1

BT20 = test: antiproliferative activity, solid tumor cell line; format: cell-based; settings: Homo sapiens, BT-20; BT20, Breast
Protocol: as §1

HCC1954 = test: antiproliferative activity, solid tumor cell line; format: cell-based; settings: Homo sapiens; HCC1954, Breast
Protocol: as §1

H1975 = test: antiproliferative activity, solid tumor cell line; format: cell-based; settings: Homo sapiens, NCI-H1975; H1975, Lung
Protocol: as §1

5637 = test: antiproliferative activity, solid tumor cell line; format: cell-based; settings: 5637, Bladder
Protocol: as §1

SKOV3 = test: antiproliferative activity, solid tumor cell line; format: cell-based; settings: Homo sapiens, SK-OV-3; SKOV3, Ovarian
Protocol: as §1

HUG1N = test: antiproliferative activity, solid tumor cell line; format: cell-based; settings: Gasrtic
Protocol: as §1

AsPC1 = test: antiproliferative activity, solid tumor cell line; format: cell-based; settings: Homo sapiens; AsPC1, Pancreas
Protocol: as §1

H1581 = test: antiproliferative activity, solid tumor cell line; format: cell-based; settings: Homo sapiens, NCI-H1581; H1581, Lung
Protocol: as §1

H1299 = test: antiproliferative activity, solid tumor cell line; format: cell-based; settings: Homo sapiens, NCI-H1299; H1299, Lung
Protocol: as §1

HepG2 = test: antiproliferative activity, solid tumor cell line; format: cell-based; settings: Homo sapiens; HepG2, Liver
Protocol: as §1

LoVo = test: antiproliferative activity, solid tumor cell line; format: cell-based; settings: Homo sapiens, Colon
Protocol: as §1

UMUC3 = test: antiproliferative activity, solid tumor cell line; format: cell-based; settings: Homo sapiens; UMUC3, Bladder
Protocol: as §1

SW780 = test: antiproliferative activity, solid tumor cell line; format: cell-based; settings: Homo sapiens; SW780, Bladder
Protocol: as §1

BxPC3 = test: antiproliferative activity, solid tumor cell line; format: cell-based; settings: Homo sapiens, BXPC-3; BxPC3, Pancreas
Protocol: as §1

CFPac1 = test: antiproliferative activity, solid tumor cell line; format: cell-based; settings: Homo sapiens, CFPAC-1; CFPac1, Pancreas
Protocol: as §1

H460 = test: antiproliferative activity, solid tumor cell line; format: cell-based; settings: Homo sapiens, NCI-H460; H460, Lung
Protocol: as §1

C33A = test: antiproliferative activity, solid tumor cell line; format: cell-based; settings: Homo sapiens, C-33-A, Cervical
Protocol: as §1

EAhy296 = test: antiproliferative activity, solid tumor cell line; format: cell-based; settings: EAhy296, Endothelial
Protocol: as §1

Hec1A = test: antiproliferative activity, solid tumor cell line; format: cell-based; settings: Homo sapiens, HEC-1-A, Endometrial
Protocol: as §1

PC3 = test: antiproliferative activity, solid tumor cell line; format: cell-based; settings: Homo sapiens, PC-3; PC3, Prostate
Protocol: as §1

Caki1 = test: antiproliferative activity, solid tumor cell line; format: cell-based; settings: Homo sapiens, CAKI-1; Caki1, Kidney
Protocol: as §1

TCCSUP = test: antiproliferative activity, solid tumor cell line; format: cell-based; settings: Homo sapiens, TCC-SUP, Bladder
Protocol: as §1

U87MG = test: antiproliferative activity, solid tumor cell line; format: cell-based; settings: Homo sapiens, U-87 MG, Glioblastoma
Protocol: as §1

HCC1806 = test: antiproliferative activity, solid tumor cell line; format: cell-based; settings: Homo sapiens; HCC1806, Breast
Protocol: as §1

SW1990 = test: antiproliferative activity, solid tumor cell line; format: cell-based; settings: Homo sapiens; SW1990, Pancreas
Protocol: as §1

DU145 = test: antiproliferative activity, solid tumor cell line; format: cell-based; settings: Homo sapiens, DU-145; DU145, Prostate
Protocol: as §1

HCT116 = test: antiproliferative activity, solid tumor cell line; format: cell-based; settings: Homo sapiens, HCT-116; HCT116, Colon
Protocol: as §1

HT29 = test: antiproliferative activity, solid tumor cell line; format: cell-based; settings: Homo sapiens, HT-29; HT29, Colon
Protocol: as §1

MDAMB453 = test: antiproliferative activity, solid tumor cell line; format: cell-based; settings: Homo sapiens, MDA-MB-453; MDAMB453, Breast
Protocol: as §1

CAOV3 = test: antiproliferative activity, solid tumor cell line; format: cell-based; settings: Homo sapiens, Caov-3; CAOV3, Ovary
Protocol: as §1

HeLa = test: antiproliferative activity, solid tumor cell line; format: cell-based; settings: Homo sapiens, Cervical
Protocol: as §1

J82 = test: antiproliferative activity, solid tumor cell line; format: cell-based; settings: Homo sapiens; J82, Bladder
Protocol: as §1

ZR75 = test: antiproliferative activity, solid tumor cell line; format: cell-based; settings: ZR75, Breast
Protocol: as §1

LNCaP = test: antiproliferative activity, solid tumor cell line; format: cell-based; settings: Homo sapiens, Prostate
Protocol: as §1

SCaBER = test: antiproliferative activity, solid tumor cell line; format: cell-based; settings: Homo sapiens, Bladder
Protocol: as §1

MDAMB361 = test: antiproliferative activity, solid tumor cell line; format: cell-based; settings: Homo sapiens, MDA-MB-361; MDAMB361, Breast
Protocol: as §1

[4] = test system: Pfeiffer ("Parental") DLBCL cell line; test: cell proliferation, Pfeiffer parental; format: cell-based; settings: Homo sapiens
Protocol: (§2) This activity of ASN002 was assessed using a diffuse large B-cell lymphoma (DLBCL) cell line, Pfeiffer (“Parental”); and an ibrutinib-resistant variant of the same cell line (“Ibrutinib-R”), which was developed by growing the cells in the presence of increasing concentrations of ibrutinib. Pools of ibrutinib-resistant cells were tested in this study. The drug idelalisib (which was approved by the FDA in […] for the treatment of B-cell blood cancers) was used for comparison as a reference compound. The data are set forth in Table A (IC50 is the half maximal inhibitory concentration).

[5] = test system: DLBCL xenograft derived from SU-DHL-6 cell line; test: DLBCL xenograft mouse model (SU-DHL-6); format: in vivo; settings: SU-DHL-6 cell line (FIG. 4)
[6] = test system: human erythroleukemia model derived from HEL cell line; test: mouse model of human erythroleukemia (HEL); format: in vivo; settings: HEL cell line (FIG. 6)
[7] = test system: DLBCL xenograft derived from Pfeiffer cell line; test: DLBCL xenograft mouse model (Pfeiffer); format: in vivo; settings: Pfeiffer cell line (FIG. 3)
[8] = test system: ibrutinib-resistant variant of Pfeiffer ("Ibrutinib-R"); test: cell proliferation, ibrutinib-resistant Pfeiffer; format: cell-based; settings: Homo sapiens, pools of resistant cells
Protocol: as §2

## N#CCC1CCN(c2nc(Nc3ccc(N4CCC(O)CC4)cc3)c3c(=O)[nH]ncc3n2)CC1 [ASN002, 2-(1-(4-((4-(4-hydroxypiperidin-1-yl)phenyl)amino)-5-oxo-5,6-dihydropyrimido[4,5-d]pyridazin-2-yl)piperidin-4-yl)acetonitrile]
[1]
  EC50: 120 nM
[2]
  tumor growth: inhibited tumor growth
[3]
  antiproliferative activity: strong antiproliferative activity
HCC1937
  IC50: > 10000 nM
A375
  IC50: 610 nM
SKHEP1
  IC50: > 10000 nM
SKMEL2
  IC50: 1030 nM
BT474
  IC50: > 10000 nM
T24
  IC50: 440 nM
MDA-MB-231
  IC50: 770 nM
MFM-223
  IC50: 400 nM
MCF7
  IC50: 600 nM
KE39
  IC50: 860 nM
MIAPACA2
  IC50: 2770 nM
Colo205
  IC50: 610 nM
Y79
  IC50: > 10000 nM
JEG3
  IC50: > 10000 nM
HT1197
  IC50: 540 nM
MDAMB468
  IC50: 1460 nM
HT1376
  IC50: 90 nM
MFE296
  IC50: 880 nM
A549
  IC50: 460 nM
SKMEL28
  IC50: > 10000 nM
MKN1
  IC50: 880 nM
SW480
  IC50: 600 nM
BT20
  IC50: 2130 nM
HCC1954
  IC50: > 10000 nM
H1975
  IC50: 850 nM
5637
  IC50: 420 nM
SKOV3
  IC50: 730 nM
HUG1N
  IC50: 810 nM
AsPC1
  IC50: 840 nM
H1581
  IC50: 380 nM
H1299
  IC50: > 10000 nM
HepG2
  IC50: 240 nM
LoVo
  IC50: 150 nM
UMUC3
  IC50: 2280 nM
SW780
  IC50: > 10000 nM
BxPC3
  IC50: 660 nM
CFPac1
  IC50: 850 nM
H460
  IC50: 910 nM
C33A
  IC50: 500 nM
EAhy296
  IC50: 1800 nM
Hec1A
  IC50: 660 nM
PC3
  IC50: 1980 nM
Caki1
  IC50: 330 nM
TCCSUP
  IC50: 340 nM
U87MG
  IC50: > 10000 nM
HCC1806
  IC50: 1630 nM
SW1990
  IC50: 1620 nM
DU145
  IC50: 990 nM
HCT116
  IC50: 430 nM
HT29
  IC50: 300 nM
MDAMB453
  IC50: 1740 nM
CAOV3
  IC50: 420 nM
HeLa
  IC50: 770 nM
J82
  IC50: 2750 nM
ZR75
  IC50: 420 nM
LNCaP
  IC50: 1070 nM
SCaBER
  IC50: 450 nM
MDAMB361
  IC50: 490 nM
[4]
  IC50: 80 nM
[5]
  tumor growth: inhibited tumor growth
[6]
  hind limb paralysis: delayed the hind limb paralysis
[7]
  tumor growth: inhibited tumor growth
[8]
  IC50: 320 nM

Source: patent US20190070182A1, “USES OF PYRIMIDO-PYRIDAZINONES TO TREAT CANCER” (Asana Biosciences, LLC, priority 2015, published 2019)
